The results in this text go back to patent publication US6521600B1, “Compound, WF002, production thereof and use thereof” (Fujisawa Pharmaceutical Co., Ltd., priority 1998, dated 2003).

Structures are written as SMILES.

Series [1] deals with Aspergillus fumigatus FP1305. Description: Antimicrobial activity, serial broth dilution method (MEC). In kind it is cell-based. The following applies: yeast nitrogen base dextrose medium, 37° C., 24 hours, microscopic observation. The method, then:
(§1) Test 1 (Antimicrobial Activity) Antimicrobial activity of WF002 was determined by a serial broth dilution method using 96-well microtiter plate in 100 μl of yeast nitrogen base dextrose medium. The inoculum was adjusted to 1×10^5 colony forming units/ml. Candida albicans and Aspergillus fumigatus were cultured at 37° C. for 24 hours and Cryptococcus neoformans was cultured at 37° C. for 48 hours in 5% CO2 incubator. After incubation, the growth inhibition of microorganism in each well was determined by microscopic observation. The results were shown as MEC (minimum effective concentration: μg/ml) value (Table 2).

Series [2] relates to Candida albicans FP633. The series is described as above. The format is cell-based. The following applies: yeast nitrogen base dextrose medium, 37° C., 24 hours, microscopic observation. The method, then:
as §1

The subject of series [3] is Cryptococcus neoformans YC203. Described as above. In kind it is cell-based. The note with it: yeast nitrogen base dextrose medium, 37° C., 48 hours, 5% CO2, microscopic observation. The method, then: as §1
The nature of series [4]: Solubility in solvents. The format is physicochemical.

For the compound `CC(=O)OC1CC2(C)C(CCC3(C)C2CCC2=C4C(=O)CC5C(C)COC(O)C45CCC23C)C(C)(C)C1OC1OC(CO)C(O)C(O)C1O` (centres unmarked) [WF002], the entries for the “MEC (minimum effective concentration)” value in series [1], in series [2] and in series [3] were 0.04 µg/mL, 6.25 µg/mL and 50 µg/mL, respectively. For the same compound, the Solubility entry in series [4] (methanol, ethyl acetate, dimethylsulfoxide) is reported as “Soluble”; in series [4] (water, n-hexane) it was “Insoluble”.
